Here are results for 12 compounds from article PMC8001104, “Repurposing of Some Natural Product Isolates as SARS-COV-2 Main Protease Inhibitors via In Vitro Cell Free and Cell-Based Antiviral Assessments and Molecular Modeling Approaches” (Pharmaceuticals, 2021).

≈ marks a conversion by molar mass, not a printed value. Where two headings read alike, the source gives them in different places.

One data set concerns the target SARS-CoV-2 3CL Protease (Severe acute respiratory syndrome coronavirus 2, UniProt P0DTD1). The experiment in a line: biochemical. To be noted: for % inhibition: 100 µM.
Another data set in a line: Cytotoxicity assay (MTT). Format: cell-based. The following applies: African green monkey, VERO-E6 cells. As for the experimental part:
The cytotoxic activity of the tested compounds was tested in VERO-E6 cells by using the 3-(4, 5-dimethylthiazol-2-yl)-2, 5-diphenyltetrazolium bromide (MTT) method with minor modifications. Briefly, the cells were seeded in 96 well-plates (100 µL/well at a density of 3 × 10^5 cells/mL) and incubated for 24 h at 37 °C in 5% CO2. After 24 h, cells were treated with various concentrations of the tested compounds in triplicates. 24 h later, the supernatant was discarded, and cell monolayers were washed with sterile 1× phosphate buffer saline (PBS) 3 times and MTT solution (20 µL of 5 mg/mL stock solution) was added to each well and incubated at 37 °C for 4 h followed by medium aspiration. In each well, the formed formazan crystals were dissolved with 200 µL of acidified isopropanol (0.04 M HCl in absolute isopropanol = 0.073 mL HCL in 50 mL isopropanol). Absorbance of formazan solutions was measured at λ max 540 nm with 620 nm as a reference wavelength using a multi-well plate reader. The percentage of cytotoxicity compared to the untreated cells was determined with the following equation.

In data set [1] the test system is SARS-CoV-2 (hCoV-19/Egypt/NRC-03/2020). The experiment in a line: Antiviral IC50 determination, reduction of virus-induced cytopathic effect in Vero-E6 cells (crystal violet). It is filed as cell-based. For orientation: Damage to the host cells serves as the signal in cytopathic effect assays.
Details of data set [2]: method as in PMID 31468636. To be noted: dose of 600 mg, healthy volunteers, cited from earlier work.
The mark [3] stands for this setting: 100 µM concentration, FRET assay, read-out: % inhibition.
Where [4] appears, read: SARS COV-2 viral main protease, FRET assay, read-out: IC50.
Setting [5] is: 100 µM concentration, FRET assay.

What is called IC50 is the point on the concentration scale where inhibition reaches its midpoint. The term inhibition denotes the share of the control response that was lost under treatment. As to `C[C@@H]1O[C@@H](O[C@@H]2[C@@H](O)[C@H](OCCc3ccc(O)c(O)c3)O[C@H](CO)[C@H]2OC(=O)/C=C/c2ccc(O)c(O)c2)[C@H](O)[C@H](O)[C@H]1O` [Compound 1, Acteoside], inhibition against SARS-CoV-2 3CL Protease was half-maximal at 43 nM (IC50). Further, at SARS-CoV-2 3CL Protease (setting [3]), the inhibition at 100 µM is 75.8%. At SARS-CoV-2 3CL Protease, `O=C(O)c1cc(O)c2c(c1)[C@@H]([C@H]1c3cc(C(=O)O)cc(O)c3C(=O)c3c(O[C@@H]4O[C@H](CO)[C@@H](O)[C@H](O)[C@H]4O)cccc31)c1cccc(O[C@@H]3O[C@H](CO)[C@@H](O)[C@H](O)[C@H]3O)c1C2=O` [Compound 2, Sennoside B] returned an inhibition at 100 µM of 78.5%. For `O=C(c1cc(O)cc(O)c1)c1c(O)cc(O)cc1O` [Compound 3, 2,3′,4,5′,6-Pentahydroxy benzophenone], on SARS-CoV-2 3CL Protease (setting [3]), the inhibition at 100 µM amounted to 87.9%. On SARS-CoV-2 3CL Protease (setting [4]), the concentration for half-maximal inhibition (IC50) was 102 nM. For orientation: % inhibition means the drop in the measured response relative to a control, in per cent. Read a high % inhibition as a strong effect. For `COc1ccc(-c2cc(=O)c3c(O)cc(O)cc3o2)cc1Oc1ccc(-c2cc(=O)c3c(O)cc(O)cc3o2)cc1` [Compound 4, Ochnaflavone-4′-methyl ether], on SARS-CoV-2 3CL Protease (setting [5]), the “% inhibition” value is listed as 53.22%. The inhibition at 100 µM on SARS-CoV-2 3CL Protease (setting [3]) is 53%. As a reminder, the CC50 is the concentration at which the toxic effect on the cells reaches its halfway point. Read a low CC50 as greater toxicity to the cells. One may read the Cmax as the peak of the concentration-time curve. Consider `O=C1C[C@@H](c2ccc(O)cc2)Oc2cc(O)cc(O)c21` [Compound 5, Naringenin], for which the half-maximal cytotoxic concentration (CC50) at 24 h in “Cytotoxicity assay (MTT)” amounted to 179 µg/mL (≈ 657 µM). The concentration for half-maximal inhibition (IC50) in data set [1] (Severe acute respiratory syndrome coronavirus 2, Vero C1008, 72 h, read-out: IC50 (anti-SARS-CoV-2)) was determined as 28.3 µg/mL (≈ 104 µM); on SARS-CoV-2 3CL Protease, 92 nM. In addition, the “selectivity index (CC50/IC50)” value in data set [1] (Vero-E6 cells) came to 6.3. For the same compound, the toxicity result in data set [2] was “without relevant toxicity”. In data set [2] (read-out: serum Cmax), the maximum concentration (Cmax) was roughly 50 µM. The compound also gave an inhibition at 100 µM against SARS-CoV-2 3CL Protease of 97.9%. Consider `O=c1cc(-c2ccc(O)cc2)oc2cc(OC3O[C@H](CO)[C@@H](O)[C@H](O)[C@H]3O)cc(O)c12` (stereo partly drawn) [Compound 6, Apigenin-7-O-β-D-glucoside], for which the inhibition at 100 µM on SARS-CoV-2 3CL Protease (setting [3]) was found to be 83.1%. Also, the IC50 at SARS-CoV-2 3CL Protease (setting [4]) stood at 74 nM. With `CC(C)C(=O)NCCC1(O)c2scnc2-c2nccc3c2C1Nc1ccccc1-3` (centres unmarked) [Compound 7, Sagitol C], at SARS-CoV-2 3CL Protease, the inhibition at 100 µM is 27%. Compound `O=C(c1ccc(O)c(O)c1)c1c(O)cc(O)cc1OC1OC(CO)C(O)C(O)C1O` [Compound 8, Maclurin-6-O-β-D-glucopyranoside (Rhodanthenone)] came in with an inhibition at 100 µM on SARS-CoV-2 3CL Protease of 23.2%. `C[C@@H]1O[C@@H](O[C@@H]2[C@@H](O)[C@H](OCCc3ccc(O)c(O)c3)O[C@H](COC(=O)/C=C/c3ccc(O)c(O)c3)[C@H]2O)[C@H](O)[C@H](O)[C@H]1O` [Compound 15, Iso-Acteoside] gave an inhibition at 100 µM at SARS-CoV-2 3CL Protease of 24.6%.

Compound `O=c1c(O)c(-c2ccc(O)cc2)oc2cc(OC3OC(CO)C(O)C(O)C3O)cc(O)c12` [Compound 16, Kaempferol-7-O-β-D-glucoside] returned an inhibition at 100 µM against SARS-CoV-2 3CL Protease of 23.3%. `CC1=CC(=O)C(C(C)C)=CC1=O` [Compound 17, Thymoquinon]: the “% inhibition” value on SARS-CoV-2 3CL Protease (setting [5]) was 63.21%. Besides, the inhibition at 100 µM on SARS-CoV-2 3CL Protease (setting [3]) stood at 63%. As to `C/C=C1/[C@H](O[C@@H]2O[C@H](CO)[C@@H](O)[C@H](O)[C@H]2O)OC=C(C(=O)OC)[C@H]1CC(=O)OCCc1ccc(O)c(O)c1` [Compound 18, Oleuropein], the inhibition at 100 µM on SARS-CoV-2 3CL Protease was found to be 26.4%.
